Measured values published in PubChem BioAssay AID2060603 (Molecular Pharmacology Branch, DTP, NCI, 2025).

Tested on: 422866-222-R5-J1-PDC spheroid viability
Test: Anticancer human tumor 422866-222-R5-J1-PDC patient-derived pancreatic adenocarcinoma cell line growth inhibition [CLK]
Details: spheroids with HUVEC and MSC; for IC50: curve of first compound; for viability, T/C: stronger effect = lower value
Text: A high-throughput screen of multi-cell type tumor spheroids was designed to identify active combinations of […] and targeted small molecules. Complex spheroids include a stromal component modeled by human endothelial cells (HUVEC) and fibroblasts modeled by human mesenchymal stem cells (MSCs). The concentration ranges selected for each drug and investigational agent were based upon clinically achievable concentrations if the clinical Cmax of the agent was known.
Compounds. The drugs and investigational agents: cirtuvivint (SM08502; NSC835563), CC-671 (NSC850746), vemurafenib (NSC761431), tapotoclax (NSC804041), sotorasib (NSC818433), adagrasib (NSC831453), MRTX-1133 (NSC836407), BAY2416964 (NSC825713), copanlisib (NSC816437), inavolisib (NSC800729), abemaciclib (NSC768073), osimertinib (NSC779217), entinostat (NSC756642), eltanexor (KPT-8602, NSC794443), venetoclax (NSC766270), ceralasertib (NSC777638), bortezomib (NSC756655), olaparib (NSC753686), talazoparib (NSC767125), alisertib (NSC759677), peposertib (NSC802822), gemcitabine (NSC613327), 5-fluorouracil (NSC19893), SN-38 (NSC673596), oxaliplatin (NSC266046), paclitaxel (NSC125973), and doxorubicin (NSC123127), were obtained from the National Cancer Institute (NCI) Developmental Therapeutics Program Chemical Repository. The FDA-approved anticancer drug set is available from the Developmental Therapeutics Program at https://dtp.cancer.gov/organization/dscb/obtaining/available plates.htm. […] The stock solutions were prepared in dimethyl sulfoxide (DMSO, Sigma-Aldrich, St. Louis, MO, cat. D2650), except for the platinum complexes which were prepared in saline (Quality Biological, Gaithersburg, MD, cat. 114-055-101), at 800-fold the tested concentration and stored at -70 degrees C prior to their use. All drugs and investigational agents were tested over a range starting from a high concentration at or near the clinical Cmax and decreasing in half-log increments. If the clinical Cmax for an agent had not been determined, the highest concentration tested was 10 microM.
Cell Culture. All cells were maintained in an incubator at 37 degrees C and 5% CO2 with 95% humidity. The PDC lines were cultured according to standard operating procedures established by the NCI PDMR. Briefly, all PDCs were thawed and cultured in Matrigel-coated flasks prepared with a working solution of 1X Ham's F-12 nutrient mix, without supplementation (Invitrogen, Waltham, MA, cat. 11765054), 100 U/mL penicillin-streptomycin (Invitrogen, cat. 15140122), and 2.5% Matrigel (Corning Inc., Corning, NY, cat. 354248) for the first three passages. The 947758-054-R-J2-PDC line was cultured in 6B/Colon 1A media, which includes advanced DMEM/F-12 (Thermo Fisher Scientific, cat. 12634028), 10 mM HEPES (Thermo Fisher Scientific, cat. 15630080), 1X GlutaMAX supplement (Thermo Fisher Scientific, cat. 35050061), 0.1 mg/mL primocin (InvivoGen, cat. ant-pm-2), 10% defined fetal bovine serum, heat inactivated (HyClone Laboratories Inc., cat. SH30070.03HI), 1.25 mM N-Acetyl-L-cysteine (Sigma-Aldrich, cat. A9165), 10 mM nicotinamide (Sigma-Aldrich, cat. N0636), 1X B-27 supplement (Thermo Fisher Scientific, cat. 17504044), 1X N-2 supplement (Thermo Fisher Scientific, cat. 17502048), and 10 microM Y-27632 dihydrochloride (Tocris Bioscience, cat. 1254). The 876862-298-R-J1-PDC was cultured in 6E media, which includes all 6B/Colon 1A media components plus 50% L-WRN conditioned media (ATCC, cat. CRL-3276), 50 ng/mL recombinant human EGF recombinant protein (hEGF; Thermo Fisher Scientific, cat. PHG0311), 10 ng/mL recombinant human fibroblast growth factor 10 (hGFG-10; PeproTech, cat. 100-26), 1 ng/mL recombinant human fibroblast growth factor 2 (hFGF-2; PeproTech, cat. 100-18B), and 1 µM prostaglandin E2 (PGE2; Tocris, cat. 2296). The 227483-062-R1-J1-PDC line was cultured in Panc media, containing all 6E components except hFGF-2, with the addition of 500 nM SB-431542 (Selleckchem, cat. S1067) and 10 nM gastrin (Tocris, cat. 3006). […]
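Further: spheroids exposed to agents for seven days before readout.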

Work on `NC(=O)C(=Cn1cnc(-c2cc(C(F)(F)F)cc(C(F)(F)F)c2)n1)c1cncnc1` + CNC(=O)c1ccc(Nc2nc(OC3CCCC3)c3c(-c4ccc5nc(C)oc5c4)c[nH]c3n2)c(OC)c1 yielded an IC50 (second compound 0.0316 µM) greater than 3000 nM, an IC50 (second compound 0.1 µM) greater than 3000 nM and an IC50 (second compound 0.316 µM) of 279 nM. For the same compound, the IC50 (second compound 1 µM) was 55.4 nM, the IC50 (second compound 3.16 µM) was 37 nM and the IC50 (second compound 10 µM) was 55.2 nM. It also gave a viability, T/C (second compound 0.0316 µM, first compound 0.00949 µM) of 98.7%, a viability, T/C (second compound 0.0316 µM, first compound 0.03 µM) of 107% and a viability, T/C (second compound 0.0316 µM, first compound 0.0949 µM) of 95.1%. The viability, T/C (second compound 0.0316 µM, first compound 0.3 µM) was 47.6%, the viability, T/C (second compound 0.0316 µM, first compound 0.949 µM) was 75.6% and the viability, T/C (second compound 0.0316 µM, first compound 3 µM) was 76.5%. The viability, T/C (second compound 0.1 µM, first compound 0.00949 µM) was 98.5%, the viability, T/C (second compound 0.1 µM, first compound 0.03 µM) was 115% and the viability, T/C (second compound 0.1 µM, first compound 0.0949 µM) was 66.6%. The viability, T/C (second compound 0.1 µM, first compound 0.3 µM) was 46.2%, the viability, T/C (second compound 0.1 µM, first compound 0.949 µM) was 47.5% and the viability, T/C (second compound 0.1 µM, first compound 3 µM) was 67.5%. The viability, T/C (second compound 0.316 µM, first compound 0.00949 µM) was 86.1%, the viability, T/C (second compound 0.316 µM, first compound 0.03 µM) was 87.6% and the viability, T/C (second compound 0.316 µM, first compound 0.0949 µM) was 56.8%. The viability, T/C (second compound 0.316 µM, first compound 0.3 µM) was 31.4%, the viability, T/C (second compound 0.316 µM, first compound 0.949 µM) was 45.4% and the viability, T/C (second compound 0.316 µM, first compound 3 µM) was 71.8%. It also gave a viability, T/C (second compound 1 µM, first compound 0.00949 µM) of 52%, a viability, T/C (second compound 1 µM, first compound 0.03 µM) of 69.5% and a viability, T/C (second compound 1 µM, first compound 0.0949 µM) of 40.6%. It also gave a viability, T/C (second compound 1 µM, first compound 0.3 µM) of 21.7%, a viability, T/C (second compound 1 µM, first compound 0.949 µM) of 32.3% and a viability, T/C (second compound 1 µM, first compound 3 µM) of 54.9%. The viability, T/C (second compound 3.16 µM, first compound 0.00949 µM) was 45.7%, the viability, T/C (second compound 3.16 µM, first compound 0.03 µM) was 60.2% and the viability, T/C (second compound 3.16 µM, first compound 0.0949 µM) was 37.3%. It also gave a viability, T/C (second compound 3.16 µM, first compound 0.3 µM) of 21.3%, a viability, T/C (second compound 3.16 µM, first compound 0.949 µM) of 29.5% and a viability, T/C (second compound 3.16 µM, first compound 3 µM) of 48.2%. The viability, T/C (second compound 10 µM, first compound 0.00949 µM) was 55.1%, the viability, T/C (second compound 10 µM, first compound 0.03 µM) was 65.4% and the viability, T/C (second compound 10 µM, first compound 0.0949 µM) was 40.9%. For the same compound, the viability, T/C (second compound 10 µM, first compound 0.3 µM) was 27.9%, the viability, T/C (second compound 10 µM, first compound 0.949 µM) was 37.2% and the viability, T/C (second compound 10 µM, first compound 3 µM) was 49.3%.
